Results taken from publication PMC4595834, “Comparison of carbon-sulfur and carbon-amine bond in therapeutic drug: 4β-S-aromatic heterocyclic podophyllum derivatives display antitumor activity” (Scientific Reports, 2015).

Key:
HeLa cells [1] = experiment: MTT cytotoxicity assay, HeLa; format: cell-based, human; settings: for IC50: Homo sapiens, HeLa, MTT, drug exposure 48 h, mean ± SD (n = 3), read-out: Cytotoxic activity (IC50) HeLa; for IC50 fold difference vs the corresponding C-NH compound (1N or 1′N): HeLa cells
Procedure: (§1) Cytotoxicity of the podophyllum derivatives were determined by reading the absorbance at 492 nm on a multiplate reader (Thermo Fisher Scientific, Multiskan MK3). Cell cycle analysis and apoptosis analysis were analyzed by flow cytometry (Accuri C6, BD). Immunofluorescence images were recorded using laser scanning microscope (Perkin-Elmer & Olympus, UltraView VoX & Ix81). The gel for the decatenation of kDNA by Topoisomerase II study was photographed with UV illumination, Tanon 1600 (Tanon Science & Technology Co., Ltd., Shanghai). The nitrocellulose blotting membrane for western blot analysis was visualized using X-ray film processor and X-ray film, Fujifilm SUPER RX-N-C.
(§2) Cytotoxicity assay was performed on human lung adenocarcinoma epithelial cell line (A549), henrietta lacks strain of cancer cells (HeLa), human gastric carcinoma cell line (BGC 823), and normal human hepatocyte cell line (HL-7702). Cells (3500–13,000) in a 100 μL culture medium per well were seeded into 96-well microtest plates (Falcon, CA). A549 cell lines, HeLa cell lines and HL-7702 cell lines were cultured in DMEM supplemented with 10% CS, 100 mg/L penicillin G, 100 mg/L streptomycin. BGC 823 cell lines were cultured in RPMI medium 1640 supplemented with 10% CS, 100 mg/L penicillin G, and 100 mg/L streptomycin. The cells were incubated at 37 °C, in a humidified atmosphere with 5% CO2 for 48 h. For all cell lines, the microculture tetrazolium [3-(4, 5-dimethylthiazol-2-yl)-2, 5-diphenyltetrazolium bromide, MTT; Sigma, St. Louis, MO] assay was performed to measure the cytotoxic effects. Drug stock solutions (the each drug concentration was 0.5, 1, 10, 20, 50, 100, 200, and 500 μM, respectively) were prepared in DMSO and the final solvent concentration was ≤ 2% DMSO (v/v), a concentration without effect on cell replication. Initial seeding densities varied among the cell lines to ensure a final absorbance reading in control (untreated) cultures in the range 0.6–0.8 A492 units. Drug exposure was for 2 days, and the IC50 value, the drug concentration that reduced the absorbance by 50%, was interpolated from dose-response data. Each test was performed in triplicate, and absorbance readings varied no more than 5%. Data presented as means ± standard deviation (SD). Statistical analyses were performed by the analysis of variance (ANOVA). All statistical analyses were performed using Origin version 8.0 ([…], OriginLab Corp., Northampton, MA, USA). Sigmoidal dose responses and non-linear regression analyses were undertaken to identify half-maximal concentrations for each of the drugs. To evaluate differences in IC50 concentrations, analysis of variance combined with Tukey’s multiple range test was used.

BGC-823 cells = experiment: MTT cytotoxicity assay, BGC-823; format: cell-based, human; settings: for IC50: Homo sapiens, BGC-823, MTT, drug exposure 48 h, mean ± SD (n = 3), read-out: Cytotoxic activity (IC50) BGC-823
Procedure: as §1, §2

A549 cells = experiment: MTT cytotoxicity assay, A549; format: cell-based, human; settings: for IC50: Homo sapiens, A549, 48 h, MTT, drug exposure 48 h, mean ± SD (n = 3), read-out: Cytotoxic activity (IC50) A549
Procedure: as §1, §2

Topoisomerase II = biological target: T1, Topoisomerase II (Homo sapiens, UniProt P11388); experiment: kDNA decatenation assay (Topoisomerase II inhibition); format: biochemical; settings: 100 μM
T1 construct: purchased TopoGEN Inc., USA 2000H
T1 sequence (P11388 whole entry): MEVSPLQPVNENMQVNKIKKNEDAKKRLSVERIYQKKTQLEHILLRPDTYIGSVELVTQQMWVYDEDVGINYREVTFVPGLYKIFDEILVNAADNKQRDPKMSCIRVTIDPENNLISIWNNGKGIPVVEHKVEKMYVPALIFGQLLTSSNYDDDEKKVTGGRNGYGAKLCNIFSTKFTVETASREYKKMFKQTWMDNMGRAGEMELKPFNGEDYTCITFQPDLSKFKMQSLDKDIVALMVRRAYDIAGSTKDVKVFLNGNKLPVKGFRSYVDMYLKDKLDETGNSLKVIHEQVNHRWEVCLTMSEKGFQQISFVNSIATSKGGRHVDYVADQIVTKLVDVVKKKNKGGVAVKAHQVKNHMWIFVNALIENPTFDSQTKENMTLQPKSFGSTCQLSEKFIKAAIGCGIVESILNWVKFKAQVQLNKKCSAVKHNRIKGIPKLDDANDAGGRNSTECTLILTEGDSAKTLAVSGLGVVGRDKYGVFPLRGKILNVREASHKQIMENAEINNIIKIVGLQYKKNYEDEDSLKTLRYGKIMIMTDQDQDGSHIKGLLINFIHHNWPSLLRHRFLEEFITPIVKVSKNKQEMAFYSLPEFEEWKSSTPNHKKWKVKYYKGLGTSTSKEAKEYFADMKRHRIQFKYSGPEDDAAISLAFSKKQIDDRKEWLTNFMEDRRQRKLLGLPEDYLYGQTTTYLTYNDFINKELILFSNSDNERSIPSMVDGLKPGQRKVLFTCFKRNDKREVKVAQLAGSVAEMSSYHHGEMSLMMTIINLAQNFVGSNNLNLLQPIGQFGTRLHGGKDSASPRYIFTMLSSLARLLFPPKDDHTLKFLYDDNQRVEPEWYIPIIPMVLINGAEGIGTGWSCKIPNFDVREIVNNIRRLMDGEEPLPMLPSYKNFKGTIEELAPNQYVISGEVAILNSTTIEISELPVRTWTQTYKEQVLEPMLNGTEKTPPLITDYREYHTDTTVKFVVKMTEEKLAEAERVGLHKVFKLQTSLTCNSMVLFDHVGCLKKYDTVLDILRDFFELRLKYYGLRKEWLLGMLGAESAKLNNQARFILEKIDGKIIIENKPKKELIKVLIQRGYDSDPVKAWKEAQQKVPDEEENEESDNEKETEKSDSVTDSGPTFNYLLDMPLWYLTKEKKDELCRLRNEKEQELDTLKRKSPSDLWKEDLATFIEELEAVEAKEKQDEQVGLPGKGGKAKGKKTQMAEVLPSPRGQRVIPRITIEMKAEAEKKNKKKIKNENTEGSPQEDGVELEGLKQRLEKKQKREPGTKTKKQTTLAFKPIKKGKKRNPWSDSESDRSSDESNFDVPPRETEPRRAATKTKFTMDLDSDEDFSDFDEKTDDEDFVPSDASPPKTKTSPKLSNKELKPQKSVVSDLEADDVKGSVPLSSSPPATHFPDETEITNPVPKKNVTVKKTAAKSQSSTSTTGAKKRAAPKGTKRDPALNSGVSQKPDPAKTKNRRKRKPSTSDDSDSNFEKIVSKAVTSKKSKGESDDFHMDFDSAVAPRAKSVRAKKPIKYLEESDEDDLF
Procedure: Kinetoplast DNA (kDNA) is a catenated network of mitochondrial DNA seen in trypanosomes.
Topoisomerase II activity was determined using kit (TopoGEN Inc., USA, Cat no. 2000H). […] Next, 4 U of topoisomerase II was added and the reaction was allowed to proceed for 60 min at 37 °C. The reaction was stopped by the addition of 1/10 volume of 1 mg/mL proteinase K and incubated for 15 min at 37 °C. The reaction was quenched via the addition of loading buffer (350 mM Tris, pH 6.8, 12% SDS, 0.012% bromophenol blue, 47% glycerol) and was then analyzed by electrophoresis on a 1% agarose gel in TBE buffer (89 mM Tris, 89 mM borate, and 2 mM Na-EDTA, pH 8.3) for 0.5 h at 140 V. The gel was visualized under UV illumination and photographed on an Alpha Imager.

[2] = MTT cytotoxicity assay, normal hepatocyte HL-7702; format: cell-based; settings: HL-7702 cells (normal hepatocyte cell line), normal human hepatocyte cell line, drug exposure 48 h, mean ± SD (n = 3), read-out: Cytotoxic activity (IC50) HL-7702
Procedure: as §1, §2

HeLa cells [3] = experiment: Flow cytometry cell cycle analysis in HeLa cells; format: cell-based, human; settings: for G2/M phase arrest: 0.1 μM; for percentage of G2/M phase cells: 1 μM; for percentage of G2/M phase cells / percentage of G2/M phase cells (maximum): 48 h; for percentage of G2/M phase cells (maximum): 5 μM
Procedure: (§3) For the cell cycle analysis, HeLa cells were treated with test compounds for 6, 12, 24 and 48 h at 37 °C in 6-well plates. Appropriate controls, in which cells were mock-treated by DMSO (<1%) for the same durations, were also set up. After being treated, all cells were trypsinized and collected, washed twice with PBS, added with 4 °C 70% ethanol (10 mL) and stored overnight at 4 °C. After this, cells were spun down at 1500 rpm for 5 min, washed once with PBS, and then treated with the mixture of 10 μL RNase (10 mg/mL), 50 μL propidium iodide (1 mg/mL) and 940 μL 1 × PBS, incubated at room temperature for 30 min in the dark. The stained cells were analyzed by flow cytometry. The result was analyzed with ModFit LT^TM 3.2 version software. For the apoptosis determination, after 6, 12, 24 and 48 h treatment with test compounds, HeLa cells were harvested, re-suspend in 500 μL annexin-binding buffer (10mM HEPES, 140 mM NaCl, 2.5 mM CaCl2, pH 7.4) at the cell density of about 10^6 cells/mL and stained with 5 μL annexin V and 5 μL propidium iodide for 15 min at room temperature. Changes in intracellular ROS levels were determined by measuring the oxidative conversion of cell permeable 2′,7′-dichlorofluorescein diacetate (DCFH-DA) to fluorescent di-chlorofluorescein (DCF) in flow cytometry (BD Accuri C6). Cells in 6-well culture dishes were incubated with DMEM for 6, 12, 24 and 48 h in the absence or presence of test compounds. The cells were washed with DMEM and incubated with DCFH-DA (10 μM) at 37 °C for 30 min. Then DCF fluorescence of 10,000 cells was detected by flow cytometry.

HeLa cells [4] = experiment: Flow cytometry ROS (DCFH-DA) in HeLa cells; format: cell-based, human; settings: for fluorescence intensity of ROS: 10 μM
Procedure: as §3

HeLa cells [5] = experiment: Western blot of apoptosis pathway proteins in HeLa cells; format: cell-based, human; settings: 1 μM; for apoptotic pathways activated (BimEL, caspase-9, -8, -3, PARP): 12–48 h
Procedure: Cells were lysed by adding 100 μL of RIPA buffer (50 mM Tris, pH 8.0, 150 mM NaCl, 1% TX-100, 0.5% sodium deoxycholate, 0.1% SDS) with 1% Protease Inhibitor PMSF. Each sample was then vigorously vortexed twice for 15 seconds, with a 30-minute incubation on ice following each agitation. The cellular debris was pelleted (12,000 rpm, 10 min), and then 100 μL of the protein suspension was transferred to fresh 0.5 mL tubes. The protein levels were quantified using a standard BCA (Thermo Scientific), after which the samples were diluted with deionized water to achieve equal protein concentrations for all samples. Prior to analyzing the samples, 5 × Loading buffer (350 mM Tris, pH 6.8, 12% SDS, 0.012% bromophenol blue, 47% glycerol) with 5% β-mercaptoethanol was added to each sample to achieve a final 1 × concentration, after which the samples were incubated at 95 °C for 10 minutes to denature the protein samples. 20–30 μg of protein was added to and run on a 15-well 4–20% Tris-HCl gel. The gel was equilibrated buffer (39 mM glycine, 48 mM, 0.037 g/L SDS, 200 mL/L methanol) for 5 minutes, then the protein were transferred to a PVDF membrane, which was incubated with 5% fetal bovine serum in TBST (20 mM Tris-HCl, pH 8.0, 150 mM, 0.5 mL/L Tween-20) for 1 h to block non-specific binding, and then probed for the primary antibody at a 1:1000 dilution with a blocking agent in TBST for 1 h at room temperature. The blot was washed with TBST, and then probed with a secondary antibody in TBST for 1 hour at room temperature. The blot was washed with TBST, and then The ECL detection kit (Millipore) was added to catalyze oxidation of luminol to emit chemiluminescence, and the membrane was visualized using X-ray film processor and X-ray film (Fujifilm SUPER RX-N-C).

[6] = before the 48 h change (24 h induction)

Structure (SMILES) | IC50 (HeLa cells [1]) [µM] | IC50 (BGC-823 cells) [µM] | IC50 (A549 cells) [µM] | inhibition of catalytic activity of Topo II (kDNA decatenation) (Topoisomerase II) | IC50 at 48 h [2] [µM] | G2/M phase arrest (HeLa cells [3]) | percentage of G2/M phase cells (HeLa cells [3]) | percentage of G2/M phase cells (maximum) (HeLa cells [3]) | fluorescence intensity of ROS (HeLa cells [4]; 48 h induction, half (1S) or most (1N) of the cells) | fluorescence intensity of ROS (HeLa cells [4]; [6]) | apoptotic pathways activated (BimEL, caspase-9, -8, -3, PARP) (HeLa cells [5]) | IC50 fold difference vs the corresponding C-NH compound (1N or 1′N) (HeLa cells [1]) | IC50 fold difference vs Compound 1N (BGC-823 cells; BGC-823 cells) [times] | IC50 fold difference vs Compound 1N (A549 cells; A549 cells) [times] | amount of ROS (fluorescence intensity × count of cells) improved compared with Compound 1N (HeLa cells [4]; 48 h) [times] | activation of ATM, ATR, caspase-8, 9 and 3 (HeLa cells [5]; 0-48 h)
COc1cc([C@@H]2c3cc4c(cc3[C@@H](Sc3ccccn3)[C@H]3COC(=O)[C@H]23)OCO4)cc(OC)c1O [3′S, 4β-S-(pyridine-2)-4-deoxy-4′-demethyl-podophyllotoxin] | 5.6 ± 0.39 | 10.3 ± 0.34 | 3.85 ± 0.35 | nearly inhibited | – | – | – | – | – | – | – | – | – | – | – | –
COc1cc([C@@H]2c3cc4c(cc3[C@@H](Nc3nc[nH]n3)[C@H]3COC(=O)[C@H]23)OCO4)cc(OC)c1OC [Compound 1N, 4β-NH-(1,2,4-trizole-3)-4-deoxy-podophyllotoxin] | 3.85 ± 0.21 | 1.25 ± 0.13 | 5.33 ± 0.52 | – | 21.2 ± 2.16 | did not induce the G2/M phase arrest | about 80% | 80-90% | 10^4–10^5 | 10^5–10^6 | only stimulated the mitochondrial apoptotic pathway | – | – | – | – | –
COc1cc([C@@H]2c3cc4c(cc3[C@@H](Sc3nc[nH]n3)[C@H]3COC(=O)[C@H]23)OCO4)cc(OC)c1OC [Compound 1S, 4β-S-(1,3,4-trizole-2)-4-deoxy-podophyllotoxin] | 0.17 ± 0.02 | 0.34 ± 0.02 | – | – | 56.1 ± 3.54 | did not induce the G2/M phase arrest | about 80% | 80-90% | – | 10^5–10^6 | activated the mitochondrial and the death receptor apoptotic pathways | about 29 times | ~3 | ~6 | 4.8 | –
COc1cc([C@@H]2c3cc4c(cc3[C@@H](Sc3nc[nH]n3)[C@H]3COC(=O)[C@H]23)OCO4)cc(OC)c1O [Compound 1′S, 4β-S-(1,3,4-trizole-2)-4-deoxy-4′-demethylepipodophyllotoxin] | 0.32 ± 0.03 | 8.38 ± 0.53 | 3.85 ± 0.38 | nearly inhibited | 43.2 ± 1.66 | – | – | – | – | – | – | 16 times | – | – | – | activation of all these proteins
